Measurements from patent publication US7407772B2, “Screening and selection methods for statin drug combinations” (Merck & Co., Inc., priority 2001, dated 2008).
Entries after “also recorded” stand apart in the source; their conditions may differ. Where two headings read alike, the source gives them in different places. Values belong to the compound of their own block, whether it stands above or below them.

What was measured:
[1] = cited from earlier work; for increase of plasma AUC by gemfibrozil: humans, multiple oral doses of gemfibrozil, single oral dose of simvastatin or lovastatin; for Cmax: reported values following 600 mg bid gemfibrozil or 200 mg qd fenofibrate in humans
[2] = system: oxidation of CVA to metabolite M2; assay: in vitro; details: human, pH 7.4
Method: (§1) The term “oxidation inhibition assay” as used herein refers to the following assay when performed with human liver microsomal protein.
(§2) Incubations were performed in triplicate for each concentration of inhibitors, and involved co-incubation of GFZ or ketoconazole (1 μM) with statins (10-20 μM) in the presence of NADPH (oxidation) or UDPGA (glucuronidation).

[3] = system: oxidative metabolism of SVA (NADPH-dependent); assay: in vitro; details: human, pH 7.4
Method: as §1, §2

[4] = system: oxidative metabolism of AVA (NADPH-dependent); assay: in vitro; details: human, pH 7.4
Method: as §1, §2

[5] = system: oxidation of CVA to metabolite M1; assay: in vitro; details: human, pH 7.4
Method: as §1, §2

[6] = system: oxidation of CVA (both oxidative metabolites); assay: in vitro; details: human, pH 7.4
Method: as §1, §2

[7] = system: human recombinant UGT isoforms; assay: UGT-specific glucuronidation assay, identification of responsible isoforms; format: in vitro ADME
Method: To examine UGT isoforms responsible for the glucuronidation of statins, incubations with various human recombinant UGT isoforms were performed using the same conditions as described herein for human liver microsomes in Example 1, except that the mixture contained 0.3 mg UGTs and was incubated for up to 60 min.

[8] = system: oxidative metabolism of simvastatin acid (NADPH-dependent); assay: Inhibition of simvastatin acid oxidation in dog liver microsomes; format: in vitro ADME; details: pH 7.4, probe simvastatin acid (10-20 μM)
[9] = Pharmacokinetics after oral simvastatin in dogs pretreated with vehicle, gemfibrozil or fenofibrate; details: dog, in vivo
[10] = system: oxidation of CVA to O-demethylated metabolite M2; assay: in vitro; details: human, pH 7.4
Method: as §1, §2

[11] = system: CYP3A-mediated oxidation of SVA; assay: in vitro; details: human, pH 7.4
Method: as §1, §2

[12] = system: oxidation of CVA to hydroxylated metabolite M1; assay: in vitro; details: human, pH 7.4
Method: as §1, §2

[13] = system: glucuronidation of RVA (UDPGA-dependent); assay: in vitro; details: human, liver microsomes, pH 7, probe RVA (10-20 μM), IC50, RVA Glucuronidation, statin 10-20 μM, UDPGA
Method: (§3) The term “glucuronidation inhibition assay” as used herein refers to the following assay when performed with human liver microsomes.
(§4) The effects of inhibitors on metabolism of the statins were expressed as percentages of metabolites (statin glucuronides and lactones) formed in the presence of inhibitors relative to the corresponding values obtained in the absence of inhibitors (control) on the same day.
as §2

[14] = system: glucuronidation of CVA (UDPGA-dependent); assay: in vitro; details: human, liver microsomes, pH 7, probe CVA (10-20 μM), IC50, CVA Glucuronidation, statin 10-20 μM, UDPGA
Method: as §3, §4, §2

[15] = system: human liver microsomes; assay: in vitro
Method: as §3, §4, §2

[16] = system: glucuronidation of SVA (UDPGA-dependent); assay: in vitro; details: human, liver microsomes, pH 7, probe SVA (10-20 μM), IC50, SVA Glucuronidation, statin 10-20 μM, UDPGA
Method: as §3, §4, §2

[17] = system: glucuronidation of AVA (UDPGA-dependent); assay: in vitro; details: human, liver microsomes, pH 7, probe AVA (10-20 μM), IC50, AVA Glucuronidation, statin 10-20 μM, UDPGA
Method: as §3, §4, §2

[18] = system: glucuronidation of simvastatin acid (UDPGA-dependent); assay: Inhibition of simvastatin acid glucuronidation in dog liver microsomes; format: in vitro ADME; details: pH 7, probe simvastatin acid (10-20 μM)
Method: A typical incubation mixture, in a final volume of 0.3 ml, contained 0.45 mg human or animal liver microsomes, preincubated with 0.045 mg Brij 58 (or 0.0225 mg alamethicin) for 15 min, 20 mM MgCl2, 5 mM UDPGA, and 0.05 M Tris buffer, pH 7.0.

[19] = Ex vivo simvastatin hydrolysis in dog plasma; format: in vitro ADME
[20] = target: T1, CYP3A4 (Homo sapiens, UniProt P08684); details: human liver microsomes; cited from earlier work
T1 construct: in human liver microsomes, an in vitro assay for determining hepatic CYP3A4 activity; host or cells: human liver microsomes
T1 sequence (P08684 whole entry): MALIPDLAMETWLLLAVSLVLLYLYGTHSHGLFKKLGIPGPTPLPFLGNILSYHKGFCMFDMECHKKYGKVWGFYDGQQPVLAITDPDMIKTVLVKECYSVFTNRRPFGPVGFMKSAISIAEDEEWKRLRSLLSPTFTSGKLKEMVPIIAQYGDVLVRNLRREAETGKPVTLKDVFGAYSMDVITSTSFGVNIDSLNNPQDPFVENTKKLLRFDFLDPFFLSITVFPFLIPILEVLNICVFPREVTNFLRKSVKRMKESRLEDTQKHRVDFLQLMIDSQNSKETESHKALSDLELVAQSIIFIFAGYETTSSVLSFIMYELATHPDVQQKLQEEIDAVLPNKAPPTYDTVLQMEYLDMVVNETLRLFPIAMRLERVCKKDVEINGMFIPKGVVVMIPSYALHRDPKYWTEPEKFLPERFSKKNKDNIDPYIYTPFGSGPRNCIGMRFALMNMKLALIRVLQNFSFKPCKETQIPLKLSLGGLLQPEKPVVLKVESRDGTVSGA

[21] = dog, in vivo, po
[22] = Clinical pharmacokinetics in humans (literature); format: in vivo; details: at their respective therapeutic doses
[23] = dog, in vivo
[24] = system: CYP3A (SVA, AVA); CYP3A and CYP2C8 (CVA); assay: in vitro; details: human, human liver microsomes, pH 7.4
Method: For oxidative metabolism studies, a typical incubation mixture, in a final volume of 0.5 mL, contained 0.1-0.25 mg liver microsomal protein, 0.1M sodium phosphate buffer (pH 7.4), 10 mM MgCl2, and 1 mM NADPH. […] Incubations were conducted at 37° C. and were terminated after 10-20 min (with NADPH) by the addition of ACN (acetonitrile). The ACN extracts were evaporated to dryness and reconstituted for analysis by HPLC with UV detection.
In brief, samples, held in an autosampler set at 5° C., were chromatographed on either a Betasil C18 (250×4.6 mm, 5 μm) or a Zorbax C18 (Waters, 150×4.6 mm, 5 μm) column, preceded by a C18 guard column, with a linear gradient of acetonitrile in 10 or 25 mM ammonium acetate, pH 4.5. […] Due to unavailability of authentic standards for oxidative metabolites of statins, quantitation of these metabolites in the in vitro incubation mixtures was accomplished using standard curves for their respective statins, assuming identical extraction recoveries and extinction coefficients between the parent drug and its corresponding metabolites.

[25] = system: human liver microsomes; assay: Glucuronidation assay: statin glucuronidation in human liver microsomes; format: in vitro ADME; details: preliminary data
Method: (§5) The term “glucuronidation assay” as used herein refers to the following assay when performed with human liver microsomes. […] Unless otherwise specified, the reaction was started by the addition of statins following a 3-min pre-incubation at 37° C., and the reaction was incubated for 45-60 min. Control experiments included incubation mixtures with either microsomes or UDPGA missing. The reaction was terminated, at appropriate time intervals, by the addition of 0.8 ml acetonitrile (ACN). […] The ability of statins to undergo glucuronidation was measured by formation of statin glucuronide and statin lactones, and expressed in term of intrinsic clearance (Clint). The CLint was estimated by dividing Vmax by apparent Km. The Km and Vmax values were estimated using a nonlinear regression program, based on a Michealis-Menten equation as follow: V=Vmax×C/(Km+C); V=formation rate of statin glucuronide+lactone, and C=substrate concentration. Incubations were performed in triplicate for human liver microsomes (pooled from n=10) or UGTs at 250-μM substrate concentration. Values are mean±SD (n=3 to 5).

[26] = as above; format: in vitro ADME; details: human, pH 7, read-out: intrinsic clearance of glucuronidation
Method: as §5

Structure (SMILES): CC[C@H](C)C(=O)O[C@H]1C[C@@H](C)C=C2C=C[C@H](C)[C@H](CC[C@@H](O)C[C@@H](O)CC(=O)O)[C@H]21 [lovastatin acid]
- increase of plasma AUC by gemfibrozil [1]: 280%

- inhibition at 1 µM [2]: ~50%
- inhibition at 1 µM [3]: > 85%
- inhibition at 1 µM [4]: > 90%
- inhibition at 1 µM [5]: 68%
- inhibition at 1 µM [6]: ≤ 50%
Structure (SMILES): CC(=O)N1CCN(c2ccc(OCC3COC(Cn4ccnc4)(c4ccc(Cl)cc4Cl)O3)cc2)CC1 (stereo not drawn) [Ketoconazole, ketoconazole]

- UGT isozymes catalyzing glucuronidation of the substance ([7]; listed as SVA): UGT1A1 and 1A3; also recorded: UGT1A10
Structure (SMILES): CCC(C)(C)C(=O)O[C@H]1C[C@@H](C)C=C2C=C[C@H](C)[C@H](CC[C@@H](O)C[C@@H](O)CC(=O)O)[C@H]21 [Simvastatin acid, simvastatin acid]
- increase of plasma AUC by gemfibrozil [1]: 185%

- IC50 [8]: ~1000 µM
- UGT isozymes catalyzing glucuronidation of the substance [7]: UGT1A1 and 1A3
- AUC(0-t) ([9]; po, 75 mg/kg, AUC 12 hr of gemfibrozil, gemfibrozil 75 mg/kg bid for 5 days): 1440 ± 176 µM·h
- Cmax ([9]; po, 75 mg/kg, Cmax of gemfibrozil, gemfibrozil treated (75 mg/kg bid for 5 days)): 446 ± 66 µM
- IC50 [10]: 220 µM
- IC50 [4]: > 750 µM
- IC50 [11]: > 800 µM
- IC50 [12]: 87 µM
- IC50 [13]: ~400 µM
- IC50 [14]: 82 µM
- IC50 ([15]; read-out: IC50, AVA Glucuronidation, statin 10-20 μM, UDPGA): 316 µM
- IC50 [16]: 354 µM
- IC50 [17]: 314 µM
- IC50 [18]: 195 µM
- effect on ex vivo simvastatin hydrolysis [19]: Minimal effect
- effect on ex vivo simvastatin hydrolysis ([19]; listed as gemfibrozil): did not affect
- SVA/SV AUC ratio, Gem/vehicle [21]: 5.4 ± 2.1
- exposure in humans relative to fenofibrate/fenofibric acid [22]: > 2 fold
- decrease in the biliary excretion of simvastatin-glucuronide [23]: ~2 fold
Structure (SMILES): Cc1ccc(C)c(OCCCC(C)(C)C(=O)O)c1 [Gemfibrozil, gemfibrozil]
- Cmax [1]: 100 to 300 µM
- mode of inhibition of simvastatin acid glucuronidation [15]: competitive inhibition
- effect on CYP3A4 mediated 1'-hydroxylation of midazolam [20]: no appreciable inhibitory effect

- microsomal CLint [24]: 10 µL/min/mg
- CLint, Glucuronidation [25]: 2.9 ul/min/mg protein
- Relative Contribution of glucuronidation to overall metabolism [25]: 22
- microsomal CLint [26]: 2.9 µL/min/mg
Structure (SMILES): COCc1c(C(C)C)nc(C(C)C)c(/C=C/[C@@H](O)C[C@@H](O)CC(=O)O)c1-c1ccc(F)cc1 [CVA, cerivastatin]

Structure (SMILES): CC[C@H](C)C(=O)O[C@H]1C[C@@H](C)C=C2C=C[C@H](C)[C@H](CC[C@@H]3C[C@@H](O)CC(=O)O3)[C@H]21 [lovastatin lactone, lovastatin]
- increase of plasma AUC by gemfibrozil [1]: no significant effect

- Cmax ([9]; Cmax of fenofibric acid, fenofibrate treated): 77 ± 9.7 µM
- IC50 [18]: 283 µM
Structure (SMILES): CC(C)(Oc1ccc(C(=O)c2ccc(Cl)cc2)cc1)C(=O)O [Fenofibric acid, fenofibric acid]

Structure (SMILES): CC(C)OC(=O)C(C)(C)Oc1ccc(C(=O)c2ccc(Cl)cc2)cc1 [Fenofibrate, fenofibrate]
- UGT isozymes catalyzing glucuronidation of the substance [7]: UGT1A9 and isoforms of the UGT2B subfamily
- Cmax [1]: 15 to 55 µM
